Measured values from publication PMC5218480 (PLoS ONE, 2017).

Test system: MV-4-11 cells
Assay: Gene expression microarray analysis (Affymetrix PrimeView) and GSEA
Type: cell-based, human
Design: RFU PODN (11730768_x_at) / Fold change /veh PODN (11730768_x_at) / RFU LINC00158 (11744669_a_at) / Fold change /veh LINC00158 (11744669_a_at) / RFU DUSP10 (11751237_a_at) / Fold change /veh DUSP10 (11751237_a_at) / RFU ID3 (11757404_x_at) / Fold change /veh ID3 (11757404_x_at) / RFU PLEKHG5 (11737974_s_at) / Fold change /veh PLEKHG5 (11737974_s_at) / RFU LRRC4B (11730491_at) / Fold change /veh LRRC4B (11730491_at) / RFU GIMAP4 (11747438_a_at) / Fold change /veh GIMAP4 (11747438_a_at) / RFU KRT8 (11758183_x_at) / Fold change /veh KRT8 (11758183_x_at) / RFU CNN1 (11734310_a_at) / Fold change /veh CNN1 (11734310_a_at) / RFU VPS37D (11726825_at) / Fold change /veh VPS37D (11726825_at) / RFU C10orf10 (11716522_x_at) / Fold change /veh C10orf10 (11716522_x_at) / RFU KIR2DL2 /// KIR2DL4 /// KIR2DL5A /// KIR2DL5B /// KIR2DS1 /// KIR2DS2 /// KIR2DS3 /// KIR2DS4 /// KIR3DL3 /// KIR3DL3 /// KIR3DS1 (11738374_at) / Fold change /veh KIR2DL2 /// KIR2DL4 /// KIR2DL5A /// KIR2DL5B /// KIR2DS1 /// KIR2DS2 /// KIR2DS3 /// KIR2DS4 /// KIR3DL3 /// KIR3DL3 /// KIR3DS1 (11738374_at) / RFU C1QL1 (11718748_at) / Fold change /veh C1QL1 (11718748_at) / RFU TMPRSS4 (11747572_a_at) / Fold change /veh TMPRSS4 (11747572_a_at) / RFU HAMP (11756126_x_at) / Fold change /veh HAMP (11756126_x_at) / RFU RNFT2 (11725882_a_at) / Fold change /veh RNFT2 (11725882_a_at) / RFU NR4A2 (11747474_a_at) / Fold change /veh NR4A2 (11747474_a_at) / RFU ABCC12 (11746883_a_at) / Fold change /veh ABCC12 (11746883_a_at) / RFU TMEM136 (11760407_x_at) / Fold change /veh TMEM136 (11760407_x_at) / RFU CLDN22 /// WWC2 (11732394_at) / Fold change /veh CLDN22 /// WWC2 (11732394_at) / RFU HLA-DPB1 (11760878_x_at) / Fold change /veh HLA-DPB1 (11760878_x_at) / RFU SPINT1 (11716480_a_at) / Fold change /veh SPINT1 (11716480_a_at) / RFU GAP43 (11754022_s_at) / Fold change /veh GAP43 (11754022_s_at) / RFU A4GNT (11735810_at) / Fold change /veh A4GNT (11735810_at) / RFU PRB3 (11715151_x_at) / Fold change /veh PRB3 (11715151_x_at) / RFU TUBB4B (11761932_at) / Fold change /veh TUBB4B (11761932_at) / RFU CAPN14 (11732068_a_at) / Fold change /veh CAPN14 (11732068_a_at) / RFU TMCC2 (11721928_a_at) / Fold change /veh TMCC2 (11721928_a_at) / RFU IRGQ (11745062_a_at) / Fold change /veh IRGQ (11745062_a_at) / RFU FAM174B (11720279_a_at) / Fold change /veh FAM174B (11720279_a_at) / RFU TMPRSS4 (11748680_a_at) / Fold change /veh TMPRSS4 (11748680_a_at) / RFU FAM212B (11763350_a_at) / Fold change /veh FAM212B (11763350_a_at) / RFU PLEKHG5 (11743358_a_at) / Fold change /veh PLEKHG5 (11743358_a_at) / RFU ZSCAN30 (11745921_a_at) / Fold change /veh ZSCAN30 (11745921_a_at) / RFU CMKLR1 (11741424_a_at) / Fold change /veh CMKLR1 (11741424_a_at) / RFU LOC101060620 /// MAPK8IP1 (11723275_at) / Fold change /veh LOC101060620 /// MAPK8IP1 (11723275_at) / RFU SPTSSB (11747773_x_at) / Fold change /veh SPTSSB (11747773_x_at) / RFU PRSS12 (11739890_at) / Fold change /veh PRSS12 (11739890_at) / RFU BIN1 (11741810_x_at) / Fold change /veh BIN1 (11741810_x_at) / RFU WNT11 (11732464_a_at) / Fold change /veh WNT11 (11732464_a_at) / RFU C10orf10 (11716521_a_at) / Fold change /veh C10orf10 (11716521_a_at) / RFU C5orf56 (11738089_at) / Fold change /veh C5orf56 (11738089_at) / RFU CYB561 (11721691_x_at) / Fold change /veh CYB561 (11721691_x_at) / RFU ANKRD19P (11752326_a_at) / Fold change /veh ANKRD19P (11752326_a_at) / RFU OR2T12 /// OR2T33 /// OR2T8 (11738714_s_at) / Fold change /veh OR2T12 /// OR2T33 /// OR2T8 (11738714_s_at) / RFU VCAN (11748164_a_at) / Fold change /veh VCAN (11748164_a_at) / RFU JSRP1 (11732532_at) / Fold change /veh JSRP1 (11732532_at) / RFU KRTAP10-11 (11738290_x_at) / Fold change /veh KRTAP10-11 (11738290_x_at) / RFU MYO3A (11730013_a_at) / Fold change /veh MYO3A (11730013_a_at) / RFU EBF3 (11725865_a_at) / Fold change /veh EBF3 (11725865_a_at) / RFU CAMK2N1 (11719241_x_at) / Fold change /veh CAMK2N1 (11719241_x_at) / RFU C5orf56 (11738088_a_at) / Fold change /veh C5orf56 (11738088_a_at) / RFU OLFML3 (11715873_a_at) / Fold change /veh OLFML3 (11715873_a_at) / RFU LOC100653217 /// NTM (11731650_a_at) / Fold change /veh LOC100653217 /// NTM (11731650_a_at) / RFU MAPK11 (11762145_a_at) / Fold change /veh MAPK11 (11762145_a_at) / RFU FIZ1 (11724087_x_at) / Fold change /veh FIZ1 (11724087_x_at) / RFU OASL (11726364_x_at) / Fold change /veh OASL (11726364_x_at) / RFU SOX15 (11748057_x_at) / Fold change /veh SOX15 (11748057_x_at) / RFU CD79A (11719716_a_at) / Fold change /veh CD79A (11719716_a_at) / RFU HIST1H1D (11736915_at) / Fold change /veh HIST1H1D (11736915_at) / RFU CASKIN2 (11723855_a_at) / Fold change /veh CASKIN2 (11723855_a_at) / RFU LOC730098 (11760151_x_at) / Fold change /veh LOC730098 (11760151_x_at) / RFU OR4N2 (11742367_at) / Fold change /veh OR4N2 (11742367_at) / RFU PRRT2 (11749266_a_at) / Fold change /veh PRRT2 (11749266_a_at) / RFU SNX32 (11753110_a_at) / Fold change /veh SNX32 (11753110_a_at) / RFU CDHR5 (11726645_a_at) / Fold change /veh CDHR5 (11726645_a_at) / RFU RCAN1 (11760418_a_at) / Fold change /veh RCAN1 (11760418_a_at) / RFU FAM167A (11723789_a_at) / Fold change /veh FAM167A (11723789_a_at) / RFU FAM26E (11764081_at) / Fold change /veh FAM26E (11764081_at) / RFU ISYNA1 (11749810_s_at) / Fold change /veh ISYNA1 (11749810_s_at) / RFU ACY1 (11761880_at) / Fold change /veh ACY1 (11761880_at) / RFU 11764098_at / Fold change /veh 11764098_at / RFU SAMD14 (11745864_x_at) / Fold change /veh SAMD14 (11745864_x_at) / RFU NPB (11741838_a_at) / Fold change /veh NPB (11741838_a_at) / RFU TMPRSS6 (11731388_a_at) / Fold change /veh TMPRSS6 (11731388_a_at) / RFU KRTAP10-2 (11738614_at) / Fold change /veh KRTAP10-2 (11738614_at) / RFU ARHGAP8 /// PRR5-ARHGAP8 (11727945_x_at) / Fold change /veh ARHGAP8 /// PRR5-ARHGAP8 (11727945_x_at) / RFU KRTAP5-7 /// NADSYN1 (11734609_at) / Fold change /veh KRTAP5-7 /// NADSYN1 (11734609_at) / RFU RASL12 (11751679_a_at) / Fold change /veh RASL12 (11751679_a_at) / RFU CDKN2B (11736163_a_at) / Fold change /veh CDKN2B (11736163_a_at) / RFU PRF1 (11729649_at) / Fold change /veh PRF1 (11729649_at) / RFU, ZNF638 /// ZNF638-IT1 / Fold change vs veh, ZNF638 /// ZNF638-IT1 / RFU, PANK3 / Fold change vs veh, PANK3 / RFU, SH3YL1 / Fold change vs veh, SH3YL1 / RFU, ZEB2 / Fold change vs veh, ZEB2 / RFU, NRIP1 / Fold change vs veh, NRIP1 / RFU, PTTG1IP / Fold change vs veh, PTTG1IP / RFU, CAPN2 / Fold change vs veh, CAPN2 / RFU, MED14 / Fold change vs veh, MED14 / RFU, SNORA58 / Fold change vs veh, SNORA58 / RFU, C1orf63 / Fold change vs veh, C1orf63 / RFU, LRRFIP1 / Fold change vs veh, LRRFIP1 / RFU, NDUFAF7 / Fold change vs veh, NDUFAF7 / RFU, SLC12A2 / Fold change vs veh, SLC12A2 / RFU, IBTK / Fold change vs veh, IBTK / RFU, ESF1 / Fold change vs veh, ESF1 / Fold change vs veh, TMEM50B / RFU, TAOK1 / Fold change vs veh, TAOK1 / RFU, ACBD3 / Fold change vs veh, ACBD3 / RFU, TMA16 / Fold change vs veh, TMA16 / RFU, RWDD3 / Fold change vs veh, RWDD3 / RFU, BCAT1 / Fold change vs veh, BCAT1 / RFU, EDEM3 / Fold change vs veh, EDEM3 / RFU, TMEM33 / Fold change vs veh, TMEM33 / RFU, WDR75 / Fold change vs veh, WDR75 / RFU, AHCTF1 / Fold change vs veh, AHCTF1 / RFU, TFRC / Fold change vs veh, TFRC / RFU, ZDHHC17 / Fold change vs veh, ZDHHC17 / RFU, NOM1 / Fold change vs veh, NOM1 / RFU, ARL8B / Fold change vs veh, ARL8B / RFU, ZBTB11 / Fold change vs veh, ZBTB11 / RFU, TAMM41 / Fold change vs veh, TAMM41 / RFU, KIAA1704 /// LOC100996395 / Fold change vs veh, KIAA1704 /// LOC100996395 / RFU, ING1 / Fold change vs veh, ING1 / RFU, TRMT61B / Fold change vs veh, TRMT61B / RFU, FUBP3 / Fold change vs veh, FUBP3 / RFU, TP53 / Fold change vs veh, TP53 / RFU, TNKS2 / Fold change vs veh, TNKS2 / RFU, ZFP14 / Fold change vs veh, ZFP14 / RFU, ACTR2 / Fold change vs veh, ACTR2 / RFU, PPP3R1 / Fold change vs veh, PPP3R1 / RFU, PIK3R1 / Fold change vs veh, PIK3R1 / RFU, HNRNPA1 / Fold change vs veh, HNRNPA1 / RFU, RNF170 / Fold change vs veh, RNF170 / RFU, ZNF28 / Fold change vs veh, ZNF28 / RFU, RNGTT / Fold change vs veh, RNGTT / RFU, OGT / Fold change vs veh, OGT / RFU, BRD1 / Fold change vs veh, BRD1 / RFU, MARS / Fold change vs veh, MARS / RFU, ZNF655 / Fold change vs veh, ZNF655 / RFU, FAHD1 / Fold change vs veh, FAHD1 / RFU, BDP1 / Fold change vs veh, BDP1 / RFU, LRRCC1 / Fold change vs veh, LRRCC1 / RFU, ARID1A / Fold change vs veh, ARID1A / RFU, ZNF146 / Fold change vs veh, ZNF146 / RFU, ZNF330 / Fold change vs veh, ZNF330 / RFU, GPN3 / Fold change vs veh, GPN3 / RFU, C9orf123 / Fold change vs veh, C9orf123 / RFU, N4BP2L2 / Fold change vs veh, N4BP2L2 / RFU, ARFIP1 / Fold change vs veh, ARFIP1 / RFU, FAM179B / Fold change vs veh, FAM179B / RFU, BCL10 / Fold change vs veh, BCL10 / RFU, UHRF1BP1L / Fold change vs veh, UHRF1BP1L / RFU, BET1 / Fold change vs veh, BET1 / RFU, CNOT2 / Fold change vs veh, CNOT2 / RFU, ZNF268 / Fold change vs veh, ZNF268 / Fold change vs veh, ZNF507 / RFU, DGCR2 / Fold change vs veh, DGCR2 / RFU, WDSUB1 / Fold change vs veh, WDSUB1 / Fold change vs veh, HSP90B1 /// MIR3652 / RFU, ADSS / Fold change vs veh, ADSS / RFU, GK / Fold change vs veh, GK / RFU, ZNF148 / Fold change vs veh, ZNF148 / RFU, TAF9 / Fold change vs veh, TAF9 / RFU, SLC1A5 / Fold change vs veh, SLC1A5 / RFU, SLMO2 / Fold change vs veh, SLMO2 / RFU, ABCC4 / Fold change vs veh, ABCC4 / RFU, LOC101060439 /// RAP1B / Fold change vs veh, LOC101060439 /// RAP1B / RFU, RFX7 / Fold change vs veh, RFX7 / RFU, GTPBP10 / Fold change vs veh, GTPBP10 / RFU, CNEP1R1 / Fold change vs veh, CNEP1R1 / RFU, BIVM-ERCC5 /// ERCC5 / Fold change vs veh, BIVM-ERCC5 /// ERCC5 / RFU, ILF3 / Fold change vs veh, ILF3 / RFU 11762660_at / Fold change /veh 11762660_at / RFU VCAN (11757783_s_at) / Fold change /veh VCAN (11757783_s_at) / RFU DDX43 (11728927_at) / Fold change /veh DDX43 (11728927_at) / RFU KRT8 (11758188_x_at) / Fold change /veh KRT8 (11758188_x_at) / RFU NKD1 (11759106_at) / Fold change /veh NKD1 (11759106_at) / RFU SRD5A1 (11742802_a_at) / Fold change /veh SRD5A1 (11742802_a_at) / RFU TPSAB1 /// TPSB2 (11721975_s_at) / Fold change /veh TPSAB1 /// TPSB2 (11721975_s_at) / RFU GSTM3 (11746129_a_at) / Fold change /veh GSTM3 (11746129_a_at) / RFU IL23R (11737362_x_at) / Fold change /veh IL23R (11737362_x_at) / RFU TMEM51 (11727254_a_at) / Fold change /veh TMEM51 (11727254_a_at) / RFU PIWIL2 (11732686_x_at) / Fold change /veh PIWIL2 (11732686_x_at) / RFU ORM1 (11744905_x_at) / Fold change /veh ORM1 (11744905_x_at) / RFU CCDC152 (11743942_at) / Fold change /veh CCDC152 (11743942_at) / RFU ECM1 (11717891_a_at) / Fold change /veh ECM1 (11717891_a_at) / RFU IL23R (11748794_a_at) / Fold change /veh IL23R (11748794_a_at) / RFU TNFAIP8L3 (11732012_x_at) / Fold change /veh TNFAIP8L3 (11732012_x_at) / RFU MBOAT4 (11741988_at) / Fold change /veh MBOAT4 (11741988_at) / RFU 11764193_at / Fold change /veh 11764193_at / RFU TMEM53 (11763286_at) / Fold change /veh TMEM53 (11763286_at) / RFU MAGEB2 (11727129_at) / Fold change /veh MAGEB2 (11727129_at) / RFU TMEM200A (11744735_a_at) / Fold change /veh TMEM200A (11744735_a_at) / RFU CCDC152 (11751479_a_at) / Fold change /veh CCDC152 (11751479_a_at) / RFU FAM211A (11726209_a_at) / Fold change /veh FAM211A (11726209_a_at) / RFU RGS16 (11746705_a_at) / Fold change /veh RGS16 (11746705_a_at) / RFU VCAN (11755009_s_at) / Fold change /veh VCAN (11755009_s_at) / RFU RHOB (11743442_s_at) / Fold change /veh RHOB (11743442_s_at) / RFU RGS16 (11720943_a_at) / Fold change /veh RGS16 (11720943_a_at) / RFU RGS16 (11720944_at) / Fold change /veh RGS16 (11720944_at) / RFU, VPS4B / Fold change vs veh, VPS4B / RFU, CREB1 / Fold change vs veh, CREB1 / RFU, DNAJC13 / Fold change vs veh, DNAJC13 / RFU, GNAQ / Fold change vs veh, GNAQ / RFU, CDK5R1 / Fold change vs veh, CDK5R1 / RFU, ZRANB3 / Fold change vs veh, ZRANB3 / RFU, CUL4A / Fold change vs veh, CUL4A / RFU, CCNY / Fold change vs veh, CCNY / RFU, UFL1 / Fold change vs veh, UFL1 / RFU, COG3 / Fold change vs veh, COG3 / RFU, DIAPH2 / Fold change vs veh, DIAPH2 / RFU, SKA2 / Fold change vs veh, SKA2 / RFU, AFF3 / Fold change vs veh, AFF3 / RFU, LMF1 / Fold change vs veh, LMF1 / RFU, IPO11 / Fold change vs veh, IPO11 / RFU, DFFB / Fold change vs veh, DFFB / RFU, FOXP1 / Fold change vs veh, FOXP1 / RFU, CARD8 / Fold change vs veh, CARD8 / RFU, STRN3 / Fold change vs veh, STRN3 / RFU, ADK / Fold change vs veh, ADK / RFU, RASSF2 / Fold change vs veh, RASSF2 / RFU, WIPF1 / Fold change vs veh, WIPF1 / RFU, LARP1B / Fold change vs veh, LARP1B / RFU, RASA1 / Fold change vs veh, RASA1 / RFU, RB1 / Fold change vs veh, RB1 / RFU, PPFIA1 / Fold change vs veh, PPFIA1 / RFU, MAT2A / Fold change vs veh, MAT2A / RFU, CCT5 / Fold change vs veh, CCT5 / RFU, WDR92 / Fold change vs veh, WDR92 / RFU, CUX1 / Fold change vs veh, CUX1 / RFU, TTC7A / Fold change vs veh, TTC7A / RFU, TMEM135 / Fold change vs veh, TMEM135 / RFU, DEPTOR / Fold change vs veh, DEPTOR / RFU, CPM / Fold change vs veh, CPM / RFU, DNAJB6 / Fold change vs veh, DNAJB6 / RFU, CACNA2D3 / Fold change vs veh, CACNA2D3 / RFU, DTX4 / Fold change vs veh, DTX4 / RFU, TFCP2 / Fold change vs veh, TFCP2 / RFU, GMCL1 /// GMCL1P1 / Fold change vs veh, GMCL1 /// GMCL1P1 / RFU, AEBP2 / Fold change vs veh, AEBP2 / RFU, SNHG1 /// SNORD22 /// SNORD25 /// SNORD26 /// SNORD27 /// SNORD28 /// SNORD29 /// SNORD31 / Fold change vs veh, SNHG1 /// SNORD22 /// SNORD25 /// SNORD26 /// SNORD27 /// SNORD28 /// SNORD29 /// SNORD31 / Fold change (Aza/veh), C12orf56 (ProbeSet 11735607_a_at) / Fold change (ACY-1035/veh), C12orf56 (ProbeSet 11735607_a_at) / Fold change (Aza/veh), FGFR1OP (ProbeSet 11751329_s_at) / Fold change (ACY-1035/veh), FGFR1OP (ProbeSet 11751329_s_at) / Fold change (Aza/veh), VPS36 (ProbeSet 11739960_a_at) / Fold change (ACY-1035/veh), VPS36 (ProbeSet 11739960_a_at) / RFU SYPL1 (11715823_x_at) / Fold change /veh SYPL1 (11715823_x_at) / RFU IGFBP7 (11715501_s_at) / Fold change /veh IGFBP7 (11715501_s_at) / RFU REEP3 (11722064_at) / Fold change /veh REEP3 (11722064_at) / RFU IGLL1 (11728026_x_at) / Fold change /veh IGLL1 (11728026_x_at): dose or concentration left out as unconfirmed
Settings: MV-4-11 cells, 48 hours

With `Nc1ncn([C@@H]2O[C@H](CO)[C@@H](O)[C@H]2O)c(=O)n1` [azacitidine] the “RFU CDKN2B (11736163_a_at)” value was 8.51 RFU.
